Tests used:
[1] = system: SETVI; experiment: Pre-emergence action against SETVI; assay type: in vivo, Setaria viridis; details: pre-emergence, dosage 320 g/ha, scored visually after 3 weeks vs untreated controls
How it was run: (§1)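 Seeds sown in sandy loam in wood-fiber pots and covered with soil. Greenhouse growth; visual damage scored after 3 weeks versus untreated controls (100% = dead, 0% = like control).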

[2] = system: ECHCG; experiment: Pre-emergence action against ECHCG; assay type: in vivo, Echinochloa crus-galli; details: pre-emergence, dosage 320 g/ha, scored visually after 3 weeks vs untreated controls
How it was run: as §1

[3] = system: VERPE; experiment: Pre-emergence action against VERPE; assay type: in vivo, Veronica persica; details: Dosage 320 g/ha, pre-emergence
How it was run: as §1

[4] = system: POLCO; experiment: Post-emergence action against POLCO; assay type: in vivo, Polygonum convolvulus; details: post-emergence, dosage 80 g/ha
How it was run: (§2)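 Weeds grown in sandy loam in greenhouse, treated at one-leaf stage (2–3 weeks after sowing) with WP or EC formulations sprayed as aqueous suspension/emulsion at 600 to […] water with 0.2% wetting agent. Visual rating after about 3 weeks versus untreated controls, as % herbicidal action (100% = plants dead, 0% = like control).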

[5] = system: AMARE; experiment: Post-emergence action against AMARE; assay type: in vivo, Amaranthus retroflexus; details: post-emergence, dosage 80 g/ha, visual assessment about 3 weeks after treatment vs untreated controls
How it was run: as §2

[6] = system: AMARE; experiment: Pre-emergence action against AMARE; assay type: in vivo, Amaranthus retroflexus; details: pre-emergence, dosage 320 g/ha, scored visually after 3 weeks vs untreated controls
How it was run: as §1

[7] = system: ALOMY; experiment: Post-emergence action against ALOMY; assay type: in vivo, Alopecurus myosuroides; details: Dosage 80 g/ha, post-emergence
Method: (§3) Seeds of monocotyledonous and dicotyledonous weed and crop plants are laid out in sandy loam soil in wood-fiber pots, covered with soil and cultivated in a greenhouse under good growth conditions. 2 to 3 weeks after sowing, the test plants are treated at the one-leaf stage. The compounds of the invention, formulated in the form of wettable powders (WP) or as emulsion concentrates (EC), are then sprayed onto the green parts of the plants in the form of an aqueous suspension or emulsion at a water application rate equating to […], with addition of 0.2% wetting agent. After the test plants have been left to stand in the greenhouse under optimal growth conditions for about 3 weeks, the action of the preparations is assessed visually in comparison to untreated controls (herbicidal action in percent (%): 100% activity=the plants have died, 0% activity=like control plants). […] At the same time, inventive compounds leave Gramineae crops such as barley, wheat, rye, millet/Sorghum, corn or rice virtually undamaged when applied post-emergence, even at high active ingredient dosages. In addition, some substances are also harmless to dicotyledonous crops such as soya, cotton, oilseed rape, sugar beet or potatoes. Some of the compounds according to the invention have high selectivity and are therefore suitable for controlling unwanted vegetation in agricultural crops by the post-emergence method. The data of Tables B18 to B34 below illustrate, in an exemplary manner, the […] herbicidal action of the compounds according to the invention, the herbicidal activity being stated in percent.

[8] = system: POLCO; experiment: Pre-emergence action against POLCO; assay type: in vivo, Polygonum convolvulus; details: Dosage 320 g/ha, pre-emergence
How it was run: as §1

[9] = system: VIOTR; experiment: Pre-emergence action against VIOTR; assay type: in vivo, Viola tricolor; details: Dosage 320 g/ha, pre-emergence
How it was run: as §1

[10] = system: ABUTH; experiment: Pre-emergence action against ABUTH; assay type: in vivo, Abutilon theophrasti; details: pre-emergence, dosage 320 g/ha, scored visually after 3 weeks vs untreated controls
How it was run: as §1

[11] = system: ECHCG; experiment: Post-emergence action against ECHCG; assay type: in vivo, Echinochloa crus-galli; details: post-emergence, dosage 80 g/ha, visual assessment about 3 weeks after treatment vs untreated controls
How it was run: as §2

[12] = system: MATIN; experiment: Pre-emergence action against MATIN; assay type: in vivo, Matricaria inodora; details: Dosage 320 g/ha, pre-emergence
How it was run: as §1

[13] = system: PHBPU; experiment: Post-emergence action against PHBPU; assay type: in vivo, Pharbitis purpurea; details: post-emergence, dosage 80 g/ha
How it was run: as §2

[14] = system: SETVI; experiment: Post-emergence action against SETVI; assay type: in vivo, Setaria viridis; details: post-emergence, dosage 80 g/ha, visual assessment about 3 weeks after treatment vs untreated controls
How it was run: as §2

[15] = system: ABUTH; experiment: Post-emergence action against ABUTH; assay type: in vivo, Abutilon theophrasti; details: post-emergence, dosage 80 g/ha, visual assessment about 3 weeks after treatment vs untreated controls
How it was run: as §2

[16] = system: STEME; experiment: Post-emergence action against STEME; assay type: in vivo, Stellaria media; details: post-emergence, dosage 80 g/ha
How it was run: as §2

[17] = system: CYPES; experiment: Pre-emergence action against CYPES; assay type: in vivo, Cyperus esculentus; details: pre-emergence, dosage 320 g/ha, scored visually after 3 weeks vs untreated controls
How it was run: as §1

[18] = system: VIOTR; experiment: Post-emergence action against VIOTR; assay type: in vivo, Viola tricolor; details: post-emergence, dosage 80 g/ha
How it was run: as §2

[19] = system: STEME; experiment: Pre-emergence action against STEME; assay type: in vivo, Stellaria media; details: Dosage 320 g/ha, pre-emergence
How it was run: as §1

[20] = system: CYPES; experiment: Post-emergence action against CYPES; assay type: in vivo, Cyperus esculentus; details: post-emergence, dosage 80 g/ha, visual assessment about 3 weeks after treatment vs untreated controls
How it was run: as §2

[21] = system: MATIN; experiment: Post-emergence action against MATIN; assay type: in vivo, Matricaria inodora; details: post-emergence, dosage 80 g/ha, visual assessment about 3 weeks after treatment vs untreated controls
How it was run: as §2

[22] = system: ALOMY; experiment: Pre-emergence action against ALOMY; assay type: in vivo, Alopecurus myosuroides; details: dosage 320 g/ha; pre-emergence; scored visually after 3 weeks vs untreated controls; 100% = plants have died, 0% = like control plants
How it was run: as §1

[23] = system: PHBPU; experiment: Pre-emergence action against PHBPU; assay type: in vivo, Pharbitis purpurea; details: Dosage 320 g/ha, pre-emergence
How it was run: as §1

[24] = system: AVEFA; experiment: Pre-emergence action against AVEFA; assay type: in vivo, Avena fatua; details: dosage 320 g/ha, scored visually after 3 weeks vs untreated controls
How it was run: as §1

[25] = system: VERPE; experiment: Post-emergence action against VERPE; assay type: in vivo, Veronica persica; details: dosage 80 g/ha
How it was run: as §2

[26] = system: AVEFA; experiment: Post-emergence action against AVEFA; assay type: in vivo, Avena fatua; details: post-emergence, dosage 80 g/ha, visual assessment about 3 weeks after treatment vs untreated controls
Method: as §3

Compound: CCn1nnnc1NC(=O)c1ccc(C(F)(F)F)c(C(=O)CCl)c1Cl [2-145]
- SETVI (Table B8, pre-emergence herbicidal activity) [1]: 100%
- Pre-emergence action against ECHCG (herbicidal activity) [2]: 90%
- Pre-emergence action against VERPE [3]: 100%
- Post-emergence action against POLCO [4]: 80
- Post-emergence action against AMARE (herbicidal action in percent) [5]: 100%
- Pre-emergence action against AMARE (herbicidal activity) [6]: 100%
- Post-emergence action against ALOMY [7]: 80%
- Pre-emergence action against POLCO [8]: 90%
- Pre-emergence action against VIOTR [9]: 100%
- Pre-emergence action against ABUTH (herbicidal activity) [10]: 100%
- Post-emergence action against ECHCG (herbicidal action in percent) [11]: 100%
- Pre-emergence action against MATIN [12]: 100%
- Post-emergence action against PHBPU [13]: 100
- Post-emergence action against SETVI (herbicidal action in percent) [14]: 100%
- Post-emergence action against ABUTH (herbicidal action in percent) [15]: 100%
- Post-emergence action against STEME [16]: 100
- Pre-emergence action against CYPES (herbicidal activity) [17]: 100%
- Post-emergence action against VIOTR [18]: 100
- Pre-emergence action against STEME [19]: 100%

Compound: CCCn1nnnc1NC(=O)c1ccc(S(C)(=O)=O)c(C(=O)C2CC2)c1Cl [3-129]
- Post-emergence action against CYPES (herbicidal action in percent) [20]: 80%
- SETVI (Table B8, pre-emergence herbicidal activity) [1]: 100%
- Pre-emergence action against ECHCG (herbicidal activity) [2]: 100%
- Pre-emergence action against VERPE [3]: 100%
- Post-emergence action against MATIN (herbicidal action in percent) [21]: 100%
- Post-emergence action against AMARE (herbicidal action in percent) [5]: 90%
- Pre-emergence action against AMARE (herbicidal activity) [6]: 100%
- Pre-emergence action against ALOMY (herbicidal activity in percent) [22]: 90%
- Pre-emergence action against PHBPU [23]: 90%
- Post-emergence action against ALOMY [7]: 90%
- Pre-emergence action against AVEFA (herbicidal activity) [24]: 100%
- Post-emergence action against VERPE [25]: 100
- Pre-emergence action against VIOTR [9]: 100%
- Pre-emergence action against ABUTH (herbicidal activity) [10]: 100%
- Post-emergence action against ECHCG (herbicidal action in percent) [11]: 100%
- Pre-emergence action against MATIN [12]: 100%
- Post-emergence action against PHBPU [13]: 100
- Post-emergence action against SETVI (herbicidal action in percent) [14]: 100%
- Post-emergence action against AVEFA (herbicidal action in percent) [26]: 90%
- Post-emergence action against ABUTH (herbicidal action in percent) [15]: 90%
- Post-emergence action against STEME [16]: 100
- Pre-emergence action against CYPES (herbicidal activity) [17]: 90%
- Post-emergence action against VIOTR [18]: 100
- Pre-emergence action against STEME [19]: 100%

— US11051515B2, “3-acyl-benzamides and their use as herbicides” (Bayer Aktiengesellschaft, priority 2017, dated 2021)
